How the values were obtained:
[1] = system: indomethacin-induced gastric mucosal injury; test: Healing effect on indomethacin-induced gastric damage; format: in vivo, Sprague-Dwaley rats; settings: 50 mg kg^−1 i.p. 4 hrs after indomethacin 48 mg kg^−1
Protocol: Gastric mucosal injury was first induced with indomethacin treatment at a dose of 48 mg kg^−1. After 4 hrs of the induction of mucosal injury, some of the animals were divided into two different groups (n=6), i.e., auto healing and SEGA-induced healing. This time point was referred as ‘0’ hr of healing. At this point of time, in the SEGA-induced healing group, SEGA was administered (i.p) at the dose of 50 mg kg^−1 (this dose was selected from the dose-response curve). The animals, which were not treated with SEGA and received only indomethacin, served as the auto healing group. Starting from 0 hr, the stomach was dissected out from all groups at the intervals of 2 hrs, 4 hrs and 8 hrs respectively for measuring ulcer index as described (Maity, P.; et al. J. Biol. Chem. 283:14391-14401; 2008) and histological studies.

[2] = system: Mitochondrial transmembrane potential (ΔΨm); test: Mitochondrial transmembrane potential (JC-1); format: in vivo, rats; settings: indomethacin, diclofenac; pretreatment
Protocol: Mitochondrial transmembrane potential (ΔΨm) was measured as described (Maity, P.; et al. J. Biol. Chem. 284:3058-3068; 2009, Maity, P.; et al. J. Biol. Chem. 283:14391-14401; 2008, Maity, P.; et al. J. Pineal Res. 46:314-323; 2009). Mitochondria were isolated from gastric mucosal scraping using Mitoisolation kit (Biochain) as described above. Equal amount of mitochondria (25 μg) from each group (control, indomethacin, diclofenac and SEGA pre-treated indomethacin, diclofenac treated) was taken in 100 μl of JC-1 assay buffer (100 mM MOPS, pH 7.5, containing 550 mM KCl, 50 mM ATP, 50 mM MgCl2, 50 mM sodium succinate, 5 mM EGTA) and were incubated in dark with JC1 (300 nM) for 15 min at 25° C. The fluorescence of each sample was measured in a Hitachi F-7000 fluorescence spectrophtometer (excitation 490 nm, emission 530 nm for JC-1 monomer and emission 590 nm for JC-1 aggregates). ΔΨm was expressed as fluorescence ratio of 590 nm/530 nm.

[3] = system: cold-restrain stress induced mucosal injury; test: Cold-restrain stress induced mucosal injury; format: in vivo, Sprague-Dwaley rats; settings: immobilized at 4° C. for 3.5 hrs; rats
rats = test: Toxicity (death) after injection in rats; format: in vivo; settings: conclusion from in vivo experiments
[4] = system: NSAIDs-induced mitochondrial oxidative stress; test: Mitochondrial oxidative stress in gastric mucosa (protein carbonyl, lipid peroxidation, total thiol); format: in vivo, rats; settings: NSAIDs (indomethcin, diclofenac)-induced; pretreatment
Protocol: Commercially available kit (Biochain) was used for the isolation of mitochondria from gastric mucosal cells. In brief, scrapped gastric mucosa was finely minced on ice in a petridish containing mitochondria extraction buffer. Ultra-Turrax T-25 homogenizer was used to homogenize the cells. To remove nuclei and unbroken cells the homogenate was first centrifuged at 800×g for 10 min and then finally subjected to 12000×g for 15 min to get the mitochondrial fraction.
Mitochondrial oxidative stress was performed earlier through measurement protein carbonyl formation, lipid peroxidation and measurement of total thiol content (Pal, C; et al. Free Radic Biol Med, 49(2), 258-267; 2010, Maity, P.; et al. J. Biol. Chem. 284:3058-3068; 2009, Maity, P.; et al. J. Biol. Chem. 283:14391-14401; 2008, Maity, P.; et al. J. Pineal Res. 46:314-323; 2009).
Mitochondrial oxidative stress was studied earlier through the measurement of mitochondrial total thiol depletion, lipid peroxidation and protein carbonyl formation. In brief, thiol content was measured by its reaction with 5-5′-dithionitrobenzoic acid (DTNB) to yield the yellow chromophore of TNB (thionitrobenzoic acid), which was measured at 412 nm Mitochondrial lipid peroxidation was assayed by adding 1 ml of the mitochondrial fraction in 0.9% normal saline to 2 ml of TBA-TCA mixture (0.375% w/v and 15% w/v, respectively) in 0.25 N HCl and was mixed and boiled for 15 min which was then cooled and after centrifugation, the absorbance of the supernatant was read at 535 nm. Tetraethoxypropane was used as standard. Protein carbonyl was measured by following the standard colorimetric method that measures the binding of dinitrophenylhydrazine (DNP) to the carbonyl group and was quantified by taking the absorbance at 362 nm.

[5] = Ferric reducing antioxidant power (FRAP) assay
Protocol: The antioxidant property of different tryptamine derivatives were assessed and compared with the known antioxidants for potency. […] The FRAP assay is based on the measurement of the ability of the substance to reduce Fe^3+ to Fe^2+, greater the reducing ability greater the anti oxidant property. Antioxidants reduce Fe^3+-TPTZ in to blue colored Fe^2+-TPTZ complex, which results in an increase in the absorbance at 595 nm giving a FRAP value. […] Absorbance changes at different time intervals (FIG. 6) as well as at different concentrations (FIG. 7) at time 6 min in the presence of different compounds at 595 nm were measured. FRAP values at 6 min and 65 min were calculated from different tryptamine derivatives and some known antioxidant (Table 1). […] DPPH assay based on the DPPH free radicals scavenging power of the antioxidant molecules. Higher the scavenging power higher will be the antioxidant property.
The assay was performed in a 96-well microplate. FRAP reagent was prepared by mixing of 10 ml acetate buffer (200 mM, pH-3.6), 1 ml of 2,4,6-tris(2-pyridyl)-s-triazine (TPTZ) solution (10 mM in 40 mM HCl) and 1 ml of ferric chloride solution (20 mM) in distilled water. For 1 h the mixture was kept in a water bath at 37° C. In 96-well microplates, 25 μL of the compounds under investigation dissolved (in methanol, some compound dissolved in water) at different concentrations in the range 1-25 μM was placed in triplicate and freshly prepared FRAP solution (175 μL) was added to this sample. A micro plate reader monitored the absorbance at 595 nm at different time intervals for up to 150 min. The absorbance of a mixture 175 μL TRAP sol and 25 μL methanol or water was taken which was subtracted from the absorbance of the samples at each time interval to calculate the absorbance change (ΔA). The FRAP value at time interval t (FRAP valuet) was calculated according to the formula: FRAP valuet(M)=(ΔatFl/ΔatFe^2+)×10^−5 Where ΔatFl is the absorbance change after the time interval t (6 and 65 min) relative to the tested flavonoid at the concentration of 10 μM and ΔatFe^2+ is the absorbance change at the same time interval relative to ferrous sulfate at the same concentration (Pal, C; et al. Free Radic Biol Med, 49(2), 258-267, 2010, Firuzi, O; et al. Biochim. Biophys. Acta 1721:174-184; 2005).

SMILES: O=C(NCCc1c[nH]c2ccc(O)cc12)c1cc(O)c(O)c(O)c1 [Compound 3a, 3,4,5-trihydroxy-N-(2-(5-hydroxy-1H-indol-3-yl)ethyl)benzamide]
- healing of already damaged gastric mucosa (ulcer index) [1]: accelerates the healing process
- mitochondrial membrane potential (fluorescence ratio 590 nm/530 nm, JC-1) [2]: restores all the NSAIDs-induced mitochondrial dysfuctions
- gastroprotective effect in stress induced gastropathy [3]: protects the gastric mucosa
- toxicity in rats (rats): nontoxic molecule
- depletion of mitochondrial thiol [4]: protects
- oxidation of mitochondrial protein (protein carbonyl formation) [4]: protects
- peroxidation of mitochondrial lipid [4]: protects
- FRAP Value6 min (μM) M ± SD ([5]; 6 min, compound at 10 μM relative to ferrous sulfate): 39.51 ± 2.7 µM
- FRAP Value65 min (μM) M ± SD ([5]; 65 min, compound at 10 μM relative to ferrous sulfate): 60.61 ± 7.3 µM
- reducing ability (Fe^3+ to Fe^2+) / antioxidant property in words ([5]; compared to other tryptamine derivatives and known antioxidants): greater reducing ability
